From article PMC8880315, “Understanding the Impact of Age-Related Changes in Pediatric GI Solubility by Multivariate Data Analysis” (Pharmaceutics, 2022)
Values after ≈ are worked out from the molar mass of the structure shown. Like-named read-outs stand apart in the source and are kept apart here.

Columns and labels:
[1] = cited from earlier work
[2] = parameters: method as in PMID 26220249; conditions: cited from earlier work
physchem [3] = conditions: 37 °C, thermodynamic from solid
physchem [4] = conditions: adult fed state simulated gastric fluid (FeSSGF), milk-based, 37 °C, pH 5, fassgf or other biorelevant, thermodynamic from solid
[5] = at least one of the newborn FeSSIF (Pnb-FeSSIF and Pnc-FeSSIF), previous solubility study
[6] = adult fasted state simulated gastric fluid (FaSSGF), pH 1.6, fassgf or other biorelevant
[7] = adult fasted state simulated intestinal fluid (FaSSIF-V2), pH 6.5, fassif
[8] = adult fed state simulated intestinal fluid (FeSSIF-V2), pH 5.8, fessif
[9] = Table 1, reference per cell, none given for mebendazole

## Nc1ccc(S(=O)(=O)c2ccc(N)cc2)cc1 [dapsone]
[1]; no reference given
  logP: 0.97

## COc1ccc2c(c1)c(CC(=O)O)c(C)n2C(=O)c1ccc(Cl)cc1 [indomethacin]
[2]; newborn gastric media (Pn-FaSSGF), previous study
  Sp/Sa (%) vs 80–[…] threshold: outside the limits of the 80–125% threshold
[1]; no reference given
  logP: 4.3

## O=C1NC(=O)C(c2ccccc2)(c2ccccc2)N1 [phenytoin]
[2]; Pnc-FeSSIF, compound of the previous study
  Sp/Sa (%): significant lower
[2]; [5]
  Sp/Sa (%): below 80 % of adult values

## COC1=CC(=O)C[C@@H](C)[C@]12Oc1c(Cl)c(OC)cc(OC)c1C2=O [griseofulvin]
[2]; [5]
  Sp/Sa (%): below 80 % of adult values

## O=C1CN(/N=C/c2ccc([N+](=O)[O-])o2)C(=O)N1 [Nitrofurantoin]
All pediatric media tested
  Sp/Sa (%) vs 80–[…] risk assessment limits: within the 80–125% risk assessment limits
  solubility differences between adults and pediatrics: no significant solubility differences
Physchem [3]; [6]
  solubility at 24 h: 196 ± 11.7 µg/mL (≈ 823 µM)
Physchem [3]; [7]
  solubility at 24 h: 215.7 ± 1.96 µg/mL (≈ 906 µM)
Physchem [3]; [8]
  solubility at 24 h: 209 ± 3.22 µg/mL (≈ 879 µM)
Physchem [4]
  solubility at 48 h: 390 ± 6.35 µg/mL (≈ 1640 µM)
[1]; Table 1, reference per cell
  pKa (acidic): 7.2 (acidic) [13]

## NC(=O)N1c2ccccc2C=Cc2ccccc21 [carbamazepine]
[2]; fasted gastric fluids, previous study
  solubility in pediatric gastric fluids in comparison to adult gastric fluids: statistical different (p ≤ 0.05) and outside the purported bioequivalence criterion

## CC(C)(O)c1ccccc1CC[C@@H](SCC1(CC(=O)O)CC1)c1cccc(/C=C/c2ccc3ccc(Cl)cc3n2)c1 [Montelukast]
[1]; [9]
  pKa (basic): 2.7
[1]; Table 1, reference per cell
  pKa (acidic): 5.8

## Nc1ccc(O)c(C(=O)O)c1 [Mesalazine]
[1]; [9]
  logP: 0.98 [8]
  pKa (basic): 5.69
[1]; Table 1, reference per cell
  pKa (acidic): 2.3
[1]; no reference given
  pKa (basic): 5.7

## COC(=O)Nc1nc2ccc(C(=O)c3ccccc3)cc2[nH]1 [Mebendazole]
[1]; [9]
  logP: 2.80
  pKa (basic): 3.5 (basic)

## OCCN(CCO)c1nc(N2CCCCC2)c2nc(N(CCO)CCO)nc(N3CCCCC3)c2n1 [Dipyridamole]
Pnc-FeSSGF (cow's milk formula) vs adult FeSSGF
  solubility in pediatric vs adult medium: significantly lower solubility
Pns-FeSSGF (soy formula) vs adult FeSSGF
  solubility in pediatric vs adult medium: significantly higher solubility
All pediatric fed intestinal media (Pnb-FeSSIF, Pnc-FeSSIF, Pi-FeSSIF) vs adult FeSSIF-V2
  solubility in pediatric vs adult medium: significant solubility differences
Pediatric fasted gastric fluids (Pn-FaSSGF and Pi-FaSSGF) vs adult FaSSGF, ANOVA p ≤ 0.05
  solubility in pediatric vs adult medium: higher solubility in both pediatric gastric fluids; however, these differences were not statistically significant
Physchem [3]; [6]
  solubility at 24 h: 11500 ± 570 µg/mL (≈ 22800 µM)
Physchem [3]; [7]
  solubility at 24 h: 11.9 ± 0.17 µg/mL (≈ 23.5 µM)
Physchem [3]; [8]
  solubility at 24 h: 81.4 ± 1.74 µg/mL (≈ 161 µM)
Physchem [4]
  solubility at 48 h: 158 ± 7.22 µg/mL (≈ 314 µM)
[1]; [9]
  pKa (basic): 5.7–6.4 (basic) [19, 20]
